Data: article PMC2871681 (Bioorganic & medicinal chemistry, 2010)
“Also recorded” adds a separate entry of the source. Like-named read-outs stand apart in the source and are kept apart here.

What was measured:
mGluR5 [1] = biological target: T1, mGluR5 (Rattus norvegicus, UniProt P31424); assay: mGluR5 radioligand displacement binding assay with [3H]MPEP; conditions: for decrease in binding affinity compared to the phenyl analogue: 17 v. 22, 18 v. 25
mGluR5 [2] = biological target: T1, mGluR5; assay: mGluR5 functional assay, calcium fluorescence; format: cell-based
[3] = read-out: mGluR5 binding affinity Ki±SEM, [3H]MPEP, rat brain membranes or HEK293-T cells transfected with cloned rat mGluR5
[4] = read-out: mGluR5 function (Ca+2 flux) IC50±SEM, inhibition of glutamate-induced calcium mobilization

T1 sequence (P31424 21-1203): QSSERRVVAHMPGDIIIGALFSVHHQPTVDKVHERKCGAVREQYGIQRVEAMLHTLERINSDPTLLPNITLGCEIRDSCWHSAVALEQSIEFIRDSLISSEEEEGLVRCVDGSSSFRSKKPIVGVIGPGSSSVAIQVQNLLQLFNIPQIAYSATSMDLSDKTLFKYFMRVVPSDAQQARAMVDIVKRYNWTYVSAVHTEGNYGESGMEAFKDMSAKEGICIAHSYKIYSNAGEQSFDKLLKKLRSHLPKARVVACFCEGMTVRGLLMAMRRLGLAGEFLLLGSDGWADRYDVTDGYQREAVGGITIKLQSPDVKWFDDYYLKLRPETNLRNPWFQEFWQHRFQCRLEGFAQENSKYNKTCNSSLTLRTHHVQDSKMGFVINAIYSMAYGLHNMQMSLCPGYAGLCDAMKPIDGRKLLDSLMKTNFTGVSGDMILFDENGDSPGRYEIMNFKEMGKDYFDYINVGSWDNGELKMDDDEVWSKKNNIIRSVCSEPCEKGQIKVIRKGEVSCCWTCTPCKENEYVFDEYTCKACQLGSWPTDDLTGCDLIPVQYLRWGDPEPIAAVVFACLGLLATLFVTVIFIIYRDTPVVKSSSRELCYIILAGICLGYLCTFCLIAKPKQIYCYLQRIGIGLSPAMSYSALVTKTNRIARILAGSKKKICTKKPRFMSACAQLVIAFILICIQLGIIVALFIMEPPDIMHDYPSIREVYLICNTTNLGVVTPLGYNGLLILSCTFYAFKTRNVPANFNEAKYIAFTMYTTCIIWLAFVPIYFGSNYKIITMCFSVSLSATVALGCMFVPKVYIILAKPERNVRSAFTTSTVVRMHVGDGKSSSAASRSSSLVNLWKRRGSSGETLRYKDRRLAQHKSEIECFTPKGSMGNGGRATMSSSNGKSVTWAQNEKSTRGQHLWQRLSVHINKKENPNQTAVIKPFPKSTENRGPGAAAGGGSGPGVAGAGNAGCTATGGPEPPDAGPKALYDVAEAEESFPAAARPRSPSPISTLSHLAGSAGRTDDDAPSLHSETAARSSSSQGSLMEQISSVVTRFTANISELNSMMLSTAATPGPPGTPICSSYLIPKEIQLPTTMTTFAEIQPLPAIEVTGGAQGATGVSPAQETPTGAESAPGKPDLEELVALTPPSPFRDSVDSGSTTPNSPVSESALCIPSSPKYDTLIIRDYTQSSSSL

Molecule | decrease in binding affinity compared to the phenyl analogue (mGluR5 [1]) | Ki (mGluR5 [1]; [3]) | IC50 (mGluR5 [2]; [4]) | other results
2-(Pyridin-3-yl)-4-(2-methylbenzo[d]thiazol-5-yl)benzonitrile [compound 26] |  | > 10000 nM | > 10000 nM | activity at mGluR5 in words (mGluR5 [1]): completely inactive
2-Phenyl-4-(2-methylbenzo[d]thiazol-5-yl)benzonitrile [compound 25] |  | 483 ± 98 nM | 6890 ± 1250 nM | increase in binding affinity compared to parent structure 4 (mGluR5 [1]; 25 v. 4): ~ 4 fold
Cc1ccc2ccc(-c3cncc(C#N)c3)cc2n1 [compound 30, 5-(2-Methylquinolin-7-yl)nicotinonitrile] |  |  |  | Ki (mGluR5 [1]): 100 ± 21 nM; IC50 (mGluR5 [2]): 68 ± 5.3 nM
Cc1ccc2ccc(-c3cnc(Cl)c(C#N)c3)cc2n1 [compound 31, 2-Chloro-5-(2-methylquinolin-7-yl)nicotinonitrile] |  |  |  | mode of mGluR5 antagonism (full or partial) (mGluR5 [2]; glutamate-induced mGluR5 activity): partial antagonist activity; also recorded: weak partial antagonist

Continued, in another order:

decrease in binding affinity compared to the phenyl analogue (mGluR5 [1]) | Molecule | Ki (mGluR5 [1]; [3]) | IC50 (mGluR5 [2]; [4]) | other results
~ 10 fold | Cc1ccc2ccc(-c3ccc(OCc4ccccc4)c(C#N)c3)cc2n1 [compound 17, 2-Benzoxy-5-(2-methylquinolin-7-yl)benzonitrile] |  |  | 
15 fold | Cc1nc2cc(-c3ccc(OCc4ccccc4)c(C#N)c3)ccc2s1 [compound 18, 2-Benzoxy-5-(2-methylbenzo[d]thiazol-5-yl)benzonitrile] |  |  | 
